US20220089592A1, “IMIDAZO[1,2-A]PYRIDINYL DERIVATIVES AS IRAK4 INHIBITORS” (priority 2019, published 2022)

Assays:
[1] = target: T1, IRAK4 (Homo sapiens, UniProt Q9NWZ3); experiment: 2-hour 10 μM ATP Biochemical Assay (MesoScale Detection format; IRAK4 phosphorylation of biotin labeled IRAK1 activation loop peptide); settings: IRAK4 MSD BIOCHEMICAL (10 μM ATP) IC50 (μM), 1 nM IRAK4, 2 hours
T1 sequence (Q9NWZ3 1-460): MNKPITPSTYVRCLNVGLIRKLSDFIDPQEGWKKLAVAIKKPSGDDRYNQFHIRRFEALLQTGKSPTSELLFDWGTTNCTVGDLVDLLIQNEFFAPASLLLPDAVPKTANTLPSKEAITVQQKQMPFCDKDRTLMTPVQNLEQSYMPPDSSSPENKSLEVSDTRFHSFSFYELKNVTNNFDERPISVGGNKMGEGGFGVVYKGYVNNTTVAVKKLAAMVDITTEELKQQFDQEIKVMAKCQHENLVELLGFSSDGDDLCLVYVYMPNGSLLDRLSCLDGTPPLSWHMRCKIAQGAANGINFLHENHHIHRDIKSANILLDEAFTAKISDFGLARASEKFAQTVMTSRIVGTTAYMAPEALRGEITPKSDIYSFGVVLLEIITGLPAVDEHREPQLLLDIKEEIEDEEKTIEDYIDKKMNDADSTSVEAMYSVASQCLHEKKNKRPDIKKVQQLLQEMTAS
In short: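 Electrochemiluminescent MSD readout: after streptavidin capture, phosphothreonine on the biotin-labelled IRAK1 activation-loop peptide detected by rabbit antibody and Sulfo-Tag secondary. Phosphorylation ran 2 h with 10 μM ATP before EDTA quench.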

[2] = target: T1, IRAK4; experiment: 2-hour 1 mM ATP IRAK4 Biochemical assay (as above, but with 100 pM IRAK4 and 1 mM ATP); settings: IRAK4 MSD BIOCHEMICAL (1 mM ATP) IC50 (μM), 100 pM IRAK4, 2 hours
In short: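 MSD electrochemiluminescence read-out: biotinylated peptide product bound to streptavidin plates, probed with anti-P-Thr rabbit antibody and Sulfo-Tag goat anti-rabbit. Kinase reaction used 1 mM ATP and 100 pM IRAK4 over 2 hours before EDTA quench.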

| Structure (SMILES) | IC50 [1] | IC50 [2] |
| --- | --- | --- |
| CCOc1cc2nc(CCCOC)cn2cc1NC(=O)c1ccn(C(F)F)n1 [Example 88, 1-(difluoromethyl)-N-(7-ethoxy-2-(3-methoxypropyl)imidazo[1,2-a]pyridin-6-yl)-1H-pyrazole-3-carboxamide] | 0.003 µM | 0.004 µM |
| O=C(Nc1cn2cc(C3CC3)nc2cc1OCC(F)(F)F)c1cccc(C(F)F)n1 [Example 26, N-(2-cyclopropyl-7-(2,2,2-trifluoroethoxy)imidazo[1,2-a]pyridin-6-yl)-6-(difluoromethyl)picolinamide] | 0.003 µM | 0.007 µM |
| O=C(Nc1ccc2nc(CC3CCOC3)cn2c1)c1cccc(C(F)F)n1 (stereo not shown) [Example 355, 6-(difluoromethyl)-N-(2-((tetrahydrofuran-3-yl)methyl)imidazo[1,2-a]pyridin-6-yl)picolinamide] | 0.008 µM | 0.042 µM |
| CCOc1cc2nc(C34CC(F)(C3)C4)cn2cc1NC(=O)c1cccc(C(F)F)n1 [Example 127, 6-(difluoromethyl)-N-(7-ethoxy-2-(3-fluorobicyclo[1.1.1]pentan-1-yl)imidazo[1,2-a]pyridin-6-yl)picolinamide] | 0.001 µM | 0.003 µM |
| O=C(Nc1cn2cc(C3CCOCC3)nc2cn1)c1cccc(C(F)F)n1 [Example 330, 6-(difluoromethyl)-N-(2-(tetrahydro-2H-pyran-4-yl)imidazo[1,2-a]pyrazin-6-yl)picolinamide] | 0.023 µM | 0.038 µM |
| CCOc1cc2nc([C@H]3C[C@H](O)C3)cn2cc1NC(=O)c1cccc(C(F)F)n1 [Example 96] | 0.001 µM | 0.001 µM |
| CCOc1nc2nc(CC3CCOC3)cn2cc1NC(=O)c1cccc(C(F)(F)F)n1 (single isomer, unassigned) [Example 95] | 0.001 µM | 0.003 µM |
| CCOc1cc2nc(C3CNC3)cn2cc1NC(=O)c1cccc(C(F)(F)F)n1 [Example 61, N-(2-(azetidin-3-yl)-7-ethoxyimidazo[1,2-a]pyridin-6-yl)-6-(trifluoromethyl)picolinamide] | 0.001 µM | 0.002 µM |
| CC1(COc2cc3nc(C[C@H]4CCOC4)cn3cc2NC(=O)c2cccc(C(F)(F)F)n2)COC1 (single isomer, unassigned) [Example 165] | 0.002 µM | 0.006 µM |
| CCOc1cc2nc(COC)cn2cc1NC(=O)c1cccc(C(F)(F)F)n1 [Example 56, N-(7-ethoxy-2-(methoxymethyl)imidazo[1,2-a]pyridin-6-yl)-6-(trifluoromethyl)picolinamide] | 0.005 µM | 0.014 µM |
| CCOc1cc2nc(C3(OCC)CCOCC3)cn2cc1NC(=O)c1cccc(C(F)F)n1 [Example 91, 6-(difluoromethyl)-N-(7-ethoxy-2-(4-ethoxytetrahydro-2H-pyran-4-yl)imidazo[1,2-a]pyridin-6-yl)picolinamide] | 0.001 µM | 0.003 µM |
| CCOc1cc2nc(C3CCOCC3)cn2cc1NC(=O)c1cccc(OC)n1 [Example 133, N-(7-ethoxy-2-(tetrahydro-2H-pyran-4-yl)imidazo[1,2-a]pyridin-6-yl)-6-methoxypicolinamide] | 0.002 µM | 0.004 µM |
| CCOc1cc2nc(C3CCOCC3)cn2cc1NC(=O)c1csc(CC)n1 [Example 202, N-(7-ethoxy-2-(tetrahydro-2H-pyran-4-yl)imidazo[1,2-a]pyridin-6-yl)-2-ethylthiazole-4-carboxamide] | 0.002 µM | 0.004 µM |
| CCOc1cc2nc(C3CCOCC3)cn2cc1NC(=O)c1cccc(C(F)F)c1 [Example 228, 3-(difluoromethyl)-N-(7-ethoxy-2-(tetrahydro-2H-pyran-4-yl)imidazo[1,2-a]pyridin-6-yl)benzamide] | 0.013 µM | 0.056 µM |
| CCOc1cc2nc(C3CCCC(OC)C3)cn2cc1NC(=O)c1cccc(C(F)F)n1 (stereo not shown) [Example 256, 6-(difluoromethyl)-N-(7-ethoxy-2-(3-methoxycyclohexyl)imidazo[1,2-a]pyridin-6-yl)picolinamide] | 0.001 µM | 0.001 µM |
| CCOc1cc2nc([C@H](F)[C@H]3CCOC3)cn2cc1NC(=O)c1cccc(C(F)(F)F)n1 (single isomer, unassigned) [Example 146] | 0.001 µM | 0.001 µM |

| Structure (SMILES) | IC50 [1] | IC50 [2] |
| --- | --- | --- |
| CC(C#N)Oc1cc2nc(C3CCOCC3)cn2cc1NC(=O)c1cccc(C(F)F)n1 (stereo not shown) [Example 173, N-(7-(1-cyanoethoxy)-2-(tetrahydro-2H-pyran-4-yl)imidazo[1,2-a]pyridin-6-yl)-6-(difluoromethyl)picolinamide] | 0.001 µM | 0.001 µM |
| N#CC1CCC(Oc2cc3nc(C4CCOCC4)cn3cc2NC(=O)c2cccc(C(F)F)n2)C1 (stereo not shown) [Example 179, N-(7-((3-cyanocyclopentyl)oxy)-2-(tetrahydro-2H-pyran-4-yl)imidazo[1,2-a]pyridin-6-yl)-6-(difluoromethyl)picolinamide] | 0.001 µM | 0.001 µM |
| CCOc1cc2nc(CC3CCOC3)cn2cc1NC(=O)c1ccc2c(n1)CCC2 (stereo not shown) [Example 369, N-(7-ethoxy-2-((tetrahydrofuran-3-yl)methyl)imidazo[1,2-a]pyridin-6-yl)-6,7-dihydro-5H-cyclopenta[b]pyridine-2-carboxamide] | 0.002 µM | 0.026 µM |
| CCOc1cc2nc(CC)cn2cc1NC(=O)c1cccc(C(F)(F)F)n1 [Example 1, N-(7-ethoxy-2-ethylimidazo[1,2-a]pyridin-6-yl)-6-(trifluoromethyl)picolinamide] | 0.003 µM | 0.011 µM |
| CCOc1cc2nc(C3CCCOC3)cn2cc1NC(=O)c1cccc(C(F)(F)F)n1 (stereo not shown) [Example 112, N-(7-ethoxy-2-(tetrahydro-2H-pyran-3-yl)imidazo[1,2-a]pyridin-6-yl)-6-(trifluoromethyl)picolinamide] | 0.001 µM | 0.001 µM |
| CCOc1cc2nc(C3CCOCC3)cn2cc1NC(=O)c1cccc(COC)n1 [Example 364, N-(7-ethoxy-2-(tetrahydro-2H-pyran-4-yl)imidazo[1,2-a]pyridin-6-yl)-6-(methoxymethyl)picolinamide] | 0.004 µM | 0.013 µM |
| CCOc1cc2nc(CC)cn2cc1NC(=O)c1ccn(C(F)F)n1 [Example 44, 1-(difluoromethyl)-N-(7-ethoxy-2-ethylimidazo[1,2-a]pyridin-6-yl)-1H-pyrazole-3-carboxamide] | 0.012 µM | 0.027 µM |
| CCOc1cc2nc(C3CCOCC3)cn2cc1NC(=O)c1cccc(OC)c1F [Example 215, N-(7-ethoxy-2-(tetrahydro-2H-pyran-4-yl)imidazo[1,2-a]pyridin-6-yl)-2-fluoro-3-methoxybenzamide] | 0.008 µM | 0.037 µM |
| COc1cc(NC(=O)c2cccc(C(F)F)n2)cn2cc(C3CC4(CCOC4)C3)nc12 (stereo not shown) [Example 507, 6-(difluoromethyl)-N-(8-methoxy-2-(6-oxaspiro[3.4]octan-2-yl)imidazo[1,2-a]pyridin-6-yl)picolinamide] | 0.002 µM | 0.004 µM |
| CCOc1cc2nc(CC3CCOC3)cn2cc1NC(=O)c1ccn(CC(F)(F)F)n1 (stereo not shown) [Example 123, N-(7-ethoxy-2-((tetrahydrofuran-3-yl)methyl)imidazo[1,2-a]pyridin-6-yl)-1-(2,2,2-trifluoroethyl)-1H-pyrazole-3-carboxamide] | 0.008 µM | 0.014 µM |
| CCOc1cc2nc(C3CCOCC3)cn2cc1NC(=O)c1cccc(OC(F)F)n1 [Example 362, 6-(difluoromethoxy)-N-(7-ethoxy-2-(tetrahydro-2H-pyran-4-yl)imidazo[1,2-a]pyridin-6-yl)picolinamide] | 0.006 µM | 0.017 µM |
| CCOc1nc2nc(CC3CCOC3)cn2cc1NC(=O)c1cccc(C(F)(F)F)n1 (stereo not shown) [Example 93, N-(7-ethoxy-2-((tetrahydrofuran-3-yl)methyl)imidazo[1,2-a]pyrimidin-6-yl)-6-(trifluoromethyl)picolinamide] | 0.001 µM | 0.005 µM |
| CCOc1cc2nc(C34CC(CO)(C3)C4)cn2cc1NC(=O)c1cccc(C(F)F)n1 [Example 130, 6-(difluoromethyl)-N-(7-ethoxy-2-(3-(hydroxymethyl)bicyclo[1.1.1]pentan-1-yl)imidazo[1,2-a]pyridin-6-yl)picolinamide] | 0.001 µM | 0.001 µM |
| CCOc1nc2nc(C3CCOCC3)cn2cc1NC(=O)c1cccc(C(F)F)n1 [Example 372, 6-(difluoromethyl)-N-(7-ethoxy-2-(tetrahydro-2H-pyran-4-yl)imidazo[1,2-a]pyrimidin-6-yl)picolinamide] | 0.001 µM | 0.002 µM |
| CCOc1cc2nc(CC3CCOC3)cn2cc1NC(=O)c1ccn(C)n1 (stereo not shown) [Example 155, N-(7-ethoxy-2-((tetrahydrofuran-3-yl)methyl)imidazo[1,2-a]pyridin-6-yl)-1-methyl-1H-pyrazole-3-carboxamide] | 0.005 µM | 0.016 µM |
| CCOc1cc2nc(C3CCOCC3)cn2cc1NC(=O)c1cccc(C)c1F [Example 214, N-(7-ethoxy-2-(tetrahydro-2H-pyran-4-yl)imidazo[1,2-a]pyridin-6-yl)-2-fluoro-3-methylbenzamide] | 0.003 µM | 0.007 µM |
